Tested on: decay organisms
Test: soil contact veneer exposure test: dip-treated Scots pine sapwood veneers half buried in damp compost, pulled by hand weekly until failure
Conditions: for synergy of the combination with imazalil sulfate: actual versus expected average time to failure; for estimated expected half life for 1% fungicide plus 1% Imazalil sulfate / Half life for 1% fungicide plus 1% Imazalil sulfate / Half life for fungicide at 2% active ingredient (ai): Example 3; for half life, Low level with 0.8% Imazalil sulfate: 0.8% fungicide plus 0.8% imazalil sulfate, IMS
Text: The present invention also provides a simple exposure test for evaluating the wood preserving abilities of candidate ingredients or compositions. This exposure test is based on the premise that small dimension timber test specimens tend to fail more quickly than larger ones in soil contact situations.
It is preferable that the thickness of the veneers be greater than 0.1 mm, as veneers of lesser thickness can often be pulled apart by hand without undergoing exposure to decay organisms. Veneers which are thicker than 0.4 may take an excessive amount of time to fail the exposure test. In one embodiment, the thickness of the veneers is about 0.2 mm and the wood is the sapwood of the Scots pine (Pinus sylvestris). Other woods and thicknesses can be used. […] An example of convenient width and length dimensions are 15×50 mm. However, width and length are not critical provided they are kept consistent within a test, although very large or small length or width dimensions may be difficult to handle.
Accordingly, the test of the present invention comprises testing the integrity of a veneer after exposure to a decay-inducing environment. In one embodiment, this environment is damp compost in which decay organisms are present and water is present at just above the water holding capacity of the compost. If desired, other media can be used, and the test can be conducted at water contents which are below, at, or above the water-holding capacity of the media.
In general, the integrity of the veneer is inversely related to the length of exposure to the decay promoting environment. The integrity of the veneer can be tested by applying a force to the veneer and noting whether or not the veneer breaks. Thus, if wood preservative agents are applied to the veneers, these veneers would be expected to withstand longer exposure to the environment without breaking compared to control veneers without breaking.
The force applied to the veneers is preferably a force which pulls the two ends in opposite directions. The force can be applied by the use of an instrument or manually. If there is significant decay the veneer will break, generally near the junction between the portion submerged in the decay accelerating medium and the portion exposed to air. If the force is applied manually, it is preferable that the same individual conduct the test at the various exposure time points.
The veneers were cut such that both late wood and early wood were present in each veneer. The following biocides were tested: imazalil sulfate, dichlorophen, fenarimol, triclosan, and PHMB. To allow the mixing together of the five selected biocides in any combination the biocides were formulated such that they could be mixed together (all the percentages are mass/mass):
Test solutions were prepared and sets of veneers were dip treated such that there were 6 replicate veneers for each treatment under investigation. Additionally six veneers were dip treated in deionised water to act as water controls. […] Plastic containers (approximately 350×220 mm by at least 60 mm high) were part filled with John Innes Number 2 potting compost at a little above its water holding capacity. The veneers for this particular test were placed in six rows within a container such that approximately half the veneer was below the compost and half above. The veneers were placed in the compost such than those given a particular treatment were distributed throughout the container and were not grouped together. The containers, compost and veneers were weighed then incubated at about 30° C. and near 100% relative humidity in an incubator. Each week during the test the assembly was reweighed and deionised water added to bring it back to its original mass. After 3 weeks each veneer was examined in turn. It was held between the fore finger and thumb at each end and pulled to see if it could be broken. If it could be pulled apart a failure was recorded.

[1] = Example 5, solutions in acetone
[2] = Example 8, solutions in IMS (alcohol)
[3] = unnumbered table, solutions in IMS

## N#Cc1c(Cl)c(Cl)c(Cl)c(C#N)c1Cl [Chlorothalonil, tetrachloroisophthalonitrile]
Example 5, additive expectation
  estimated expected half life for 1% fungicide plus 1% Imazalil: {9.92 weeks}
[1]
  Half life for 1% fungicide plus 1% Imazalil: 10.67 weeks
  Half life for fungicide at 2% ai: 12.17 weeks

## CCCCn1sc2ccccc2c1=O [BBIT, N-butyl-1,2-benzisothiazolin-3-one]
Example 9, 0.7% BBIT plus 0.2% imazalil sulfate
  half life, With Imazalil sulfate: 7.33 weeks
Example 9, 1.4% BBIT or 0.4% imazalil sulfate alone, formulations which can be mixed together
  half life, No addition: 8.33 weeks
Example 9, additive expectation
  estimated expected half life, With Imazalil sulfate: {6.92 weeks}

## Poly(hexamethylenebiguanide)hydrochloride [PHMB]
Example 1, 0.3% dichlorophen, 0.1% triclosan, 0.4% fenarimol or 0.4% PHMB, each plus 0.2% imazalil sulfate
  average time for failure to occur (half life), combination with imazalil sulfate: 5.17 weeks
Example 1, additive expectation, midway between the two single biocides
  estimated expected average time for failure, combination with imazalil sulfate: (5.00) weeks
Example 1, biocide alone: 0.6% dichlorophen, 0.2% triclosan, 0.8% fenarimol, 0.8% PHMB, 0.4% imazalil sulfate, 6 veneers
  average time for failure to occur (half life): 4.83 weeks
  synergy of the combination with imazalil sulfate: positive synergy

## CCCCCCCCCCCCN(CCCN)CCCN [Triameen Y 12D-30, N,N-bis(3-aminopropyl)dodeclamine]
Example 8, additive expectation
  estimated expected half life, Low level (0.8%) plus 0.8% Imazalil: {5.75 weeks}
[2]
  half life, High level (1.6%): 5.00 weeks
  half life, Low level (0.8%): 4.33 weeks
  half life, Low level (0.8%) plus 0.8% Imazalil: 6.00 weeks

## alkyl dimethyl benzyl ammonium chloride [BAC]
Additive expectation
  estimated expected half life for 1% fungicide plus 1% Imazalil sulfate: 5.59 weeks
Solutions in IMS (alcohol)
  Half life for 1% fungicide plus 1% Imazalil sulfate: 6.17 weeks
  Half life for fungicide at 2% active ingredient (ai): 5.17 weeks
Unnumbered table
  half life, Low level with 0.8% Imazalil sulfate: 6.00 weeks
Unnumbered table, additive expectation
  expected half life, Low level with 0.8% Imazalil sulfate: {592 weeks}
[3]
  half life, High level (1.6%): 4.83 weeks
  half life, Low level (0.8%): 4.67 weeks

## CCCCCCCCCC[N+](C)(C)CCCCCCCCCC.[Cl-] [DDAC, didecyl dimethyl ammonium chloride]
  half life, Low level with 0.8% Imazalil sulfate: 5.50 weeks
  synergy of the combination with imazalil sulfate: evidence of synergy
Example 2, 0.18% active quat plus 0.30% imazalil sulfate (Table 3; text b187 says 0.2%)
  average time for failure to occur, quat with Imazalil sulfate: 5.50 weeks
Example 2, 0.36% active quat in deionised water
  average time for failure to occur, Quat Only: 4.17 weeks
Additive expectation
  estimated expected half life for 1% fungicide plus 1% Imazalil sulfate: 5.50 weeks
  expected half life, Low level with 0.8% Imazalil sulfate: {5.58 weeks}
Solutions in IMS (alcohol)
  Half life for 1% fungicide plus 1% Imazalil sulfate: 6.50 weeks
  Half life for fungicide at 2% active ingredient (ai): 5.00 weeks
Solutions in IMS
  half life, High level (1.6%): 5.33 weeks
  half life, Low level (0.8%): 5.00 weeks

Source: patent publication US20060276468A1, “Wood preservative formulations comprising Imazalil” (priority 2005, published 2006)
